Measured values: US9605013B2, “Derivatives of hemin with antibacterial and antiviral activity” (OBSCHESTVO S OGRANICHENNOI OTVETSTVENNOSTIYU …, priority 2011, dated 2017)
Marks after values point to notes of the source that are not given here.

Key:
[1] = tested on: Staphylococcus aureus No. 100 KC; assay: Antibacterial specific activity, twofold dilutions, visual growth evaluation; type: cell-based; conditions: S. aureus 100 KC; 36° C., 24 hours
Experimental: (§1) The specific activity of compounds also was determined against bacteria strains such as Staphylococcus aureus No. 25923 ATCC (American Type Culture Collection); Staphylococcus aureus No. 100 KC; Staphylococcus epidermidis No. 533; Enterococcus faecalis No. 559; Enterococcus faecium No. 569, Staphylococcus aureus No. 5 (MRSA), Staphylococcus aureus No. 3797 (MRSA). Staphylococcus aureus was cultured on the Trypticase Soy Agar (BBL) commercially available dry medium. Enterococcus faecalis was cultured on the Columbia Agar (BBL) commercially available dry medium. These media were sterilized by autoclaving at 121° C. for 15 min. Bacterial inoculum was constant and was 5×10^5 CFU/ml (10^5 CFU/0.2 ml). For water-soluble compounds, wells from 2nd through 8th were added with the solvent (water) in an amount of 15 μL per well, then the 1st well was added with 30 μL of the stock solution of the tested compound in […] with a concentration of […], and the concentration was adjusted to 0.007×10^3 M by serial twofold dilutions. A 10-μL portion was taken from every well, and 190 μL of the bacterial culture (10^5 CFU) was added per well. For DMSO-soluble compounds, wells from 2nd through 8th were added with the solvent (DMSO) in an amount of 10 μL per well, then the 1st well was added with 20 μL of the stock solution of the tested compound in […] with a concentration of […], and the concentration was adjusted to 0.039×10^3 M by serial twofold dilutions. A 2-μL portion was taken from each well, and 198 μL of the bacterial culture (10^5 CFU) was added per well.
(§2) The control comprised wells free of tested compounds (culture growth control). In addition, purity control of nutritional media and solvents was used. Plates were incubated in a thermostat at 36° C. for 24 hours.
(§3) Culture growth was evaluated visually by comparison of how microorganisms grew in the presence of tested compounds and in the absence of them. MIC was set equal to the last dilution of a tested agent which suppressed bacterial culture growth.

[2] = tested on: Staphylococcus aureus No. 5 (MRSA); assay: as above; type: cell-based; conditions: St. aur No. 5 MRSA; 36° C., 24 hours
Experimental: as §1, §2, §3

Escherichia coli 4300 = assay: as above; type: cell-based; conditions: E. coli 4300; 36° C., 24 hours
Experimental: [Worded in the source for another organism; this organism is reported under the same test.] as §1, §2, §3

[3] = tested on: Staphylococcus aureus No. 3797 (MRSA); assay: as above; type: cell-based; conditions: St. aur No. 3797 MRSA; 36° C., 24 hours
Experimental: as §1, §2, §3

[4] = tested on: Staphylococcus epidermidis No. 533; assay: as above; type: cell-based; conditions: S. epidermis 533; 36° C., 24 hours
Experimental: as §1, §2, §3

[5] = tested on: Staphylococcus aureus No. 25923 ATCC; assay: as above; type: cell-based; conditions: S. aureus 25923; 36° C., 24 hours
Experimental: as §1, §2, §3

[6] = tested on: Enterococcus faecalis No. 559; assay: as above; type: cell-based; conditions: E. faecalis 559; 36° C., 24 hours
Experimental: as §1, §2, §3

[7] = tested on: Vancomycin-resistant Enterococcus faecium 569; assay: as above; type: cell-based; conditions: Vancomycin-resistant E. faecium 569; 36° C., 24 hours
Experimental: as §1, §2, §3

[8] = tested on: Bacillus subtilis BKM B-501; assay: Antibacterial activity, serial dilutions in liquid MH medium; type: cell-based; conditions: for MIC: MH medium, 20 h, 37° C., 100% growth inhibition; for MBC: no colonies on agarized MH medium
Experimental: (§4) The antibacterial activity of the compounds was determined against strains of gram-positive bacteria such as Staphylococcus aureus 209P, Enterococcus faecalis BKM B-871, Micrococcus luteus BKM Ac-2230, Bacillus subtilis BKM B-501, and gram-negative bacteria such as Pseudomonas aeruginosa PAO1 and Escherichia coli KM MGU C-600. BKM strains were acquired from the All-Russia Collection of Microorganisms at the Institute for Biochemistry and Physiology of Microorganisms, Russian Academy of Sciences. Strain Staphylococcus aureus 209P was acquired from the Collection of Microorganisms at the Department of microbiology of the Faculty of Biology of Lomonosov Moscow State University, and Pseudomonas aeruginosa PAO1 was acquired from the Collection of Microorganisms at the Institute of Bioorganic Chemistry of the Russian Academy of Sciences.
(§5) The main parameters characterizing the antibacterial activity are the minimal inhibitory concentration (MIC) and minimal bactericidal concentration (MBC). […] MBC is the least concentration that causes the death of all cells.
(§6) MIC was quantified by inhibiting culture growth in a liquid medium with serial dilutions of compounds using a modified procedure [Amsterdam, D., 1966. “Susceptibility testing of antimicrobials in liquid media,” pp. 52-111. In Loman, V., ed. Antibiotics in laboratory medicine, 4th ed. Williams and Wilkins, Baltimore].
(§7) Bacteria were cultured and tested on an MH liquid medium (Mueller-Hinton medium: a dry extract of beef broth, 4 g/L; starch, 1.5 g/L; casein hydrolyzate, 17.5 g/L; Sigma-Fluka Catalog No. 70192) at 37° C., 100% humidity, and under stirring. Cultures (within 4 to 7 passages after thawing) in the exponential growth phase were used for tests.
(§8) All tested compounds absorb light at 595 nm, a wavelength used for evaluating bacterial culture growth. Therefore, a correction for absorption was applied in estimating the optical density of bacterial suspensions for each compound with account for its concentration in the well. Bacterial growth inhibition (GI) as percentage after 20 hours of incubating cells with compounds was derived from the optical density (A) measured in every well at a wavelength of 595 nm using the equation: GIi=[(Act−Ac0)−(Ait−Ai0)]×100/(Act−Ac0), (1) wherein the subscripts have the following meanings: i denotes the well number, c denotes a control well with bacteria whereto the tested compound is not inserted, 0 refers to the measurement taken immediately once the tested compound was inserted to the well, and t refers to the measurement taken 20 hours after the compound was inserted.
(§9) The protocol for the determination of experimental antibacterial activity of the tested compounds was as follows. A cryovial with the test strain culture in a medium with 7% DMSO stored in liquid nitrogen, was rapidly defrosted, and 1.5 mL of the fresh MH medium was inoculated with 100 μL of the cell suspension. Cells were grown for one day at 37° C. and stirred on an orbital shaker at 150 rpm. The morphologic features of the strain and the absence of contamination with foreign bacteria were verified by: (a) inoculation on an agarized (15 g/L agar) MH medium and observation of the shape and color of the grown colonies and (b) examination of characteristic morphologic features under a microscope (Mikmed-2, LOMO, Russia) equipped with a 40× objective lens. Further, the bacteria were cultured in 1 mL of the liquid MH medium at 37° C. under stirring. The cells were reseeded every day. Cell cultures were used in tests starting with 3rd reseeding and ending with 6th one.
(§10) For testing, 5 μL of a bacterial suspension in the stationary growth phase was transferred to 1 mL of a sterile MH medium and incubated until the exponential growth phase was attained (3 to 5 h, 37° C., stirring at 150 rpm). To estimate the microorganism concentration, the optical density (A) of the resulting bacterial culture was measured at a wavelength of 595 nm. […]

[9] = tested on: Staphylococcus aureus 209P; assay: as above; type: cell-based; conditions: for MIC: MH medium, 20 h, 37° C., 100% growth inhibition; for MBC: no colonies on agarized MH medium
Experimental: as §4, §5, §6, §7, §8, §9, §10

[10] = tested on: Micrococcus luteus BKM Ac-2230; assay: as above; type: cell-based; conditions: for MIC: MH medium, 20 h, 37° C., 100% growth inhibition; for MBC: no colonies on agarized MH medium
Experimental: as §4, §5, §6, §7, §8, §9, §10

[11] = tested on: Enterococcus faecalis BKM B-871; assay: Antibacterial activity, serial dilutions in liquid MH medium; type: cell-based; conditions: for MIC: MH medium, 20 h, 37° C., 100% growth inhibition; for MBC: no colonies on agarized MH medium
Experimental: as §4, §5, §6, §7, §8, §9, §10

Compound	MIC [1]	MIC [2]	MIC (Escherichia coli 4300)	MIC [3]	MIC [4]	MIC [5]	MIC [6]	MIC [7]	MIC [8]	MBC [8]	MIC [9]	MIC [10]	MBC [10]	water solubility (Water solubility)	MIC [11]	MBC [11]	MBC [9]
6,7-bis-(N^α-Glycyl]-Protohemin (IX) [VII]	12.5 µM	6.25 µM	>50.0 µM	6.25 µM	6.25 µM	2.6 µM	>50.0 µM	>50.0 µM	25 µM	25 µM	50 µM	12.5 µM	25 µM				
6,7-bis-[(Methyl Ester N^α-L-Seryl)-L-Arginyl]-Protohemin (IX) [XIX]	0.78 µM	1.56 µM	>50.0 µM	1.3 µM	1.3 µM	0.65 µM	1.3 µM	6.25 µM									
6,7-bis-[(N^α-L-Arginyl)-L-Seryl]-Protohemin (IX) [XXIV]	5.20 µM	25 µM	>50.0 µM	25 µM	2.60 µM	>50.0 µM	>50.0 µM	6.25 µM									
6,7-bis-[(N^α-L-Seryl)-L-Arginyl]-Protohemin (IX) [XXII]	0.39 µM	25 µM	>50.0 µM	20.8 µM	1.3 µM	1.3 µM	>50.0 µM	5.2 µM									
C=CC1=C(C)c2cc3[n-]c(cc4[n-]c(cc5nc(cc1n2)C(C)=C5C=C)c(C)c4CCC(=O)N[C@@H](CCC(=O)NCCO)C(=O)NCCO)c(CCC(=O)N[C@@H](CCC(=O)NCCO)C(=O)NCCO)c3C.[Cl-].[Fe+3] [XI, 6,7-bis-[(Di-2-hydroxyethylamide)-L-glutamyl]-Protohemin (IX)]	>50.0 µM	12.5 µM	>50.0 µM	12.5 µM	6.25 µM	0.39 µM	33.3 µM	>50.0 µM						water-insoluble			
C=CC1=C(C)C2=Cc3c(C=C)c(C)c4[n]3[Fe]([Cl])[n]3c(c(C)c(CCC(=O)N[C@@H](CCCNC(=N)N)C(=O)OC)c3=CC3=NC(=C4)C(C)=C3CCC(=O)N[C@@H](CCCNC(=N)N)C(=O)OC)=CC1=N2 [XV, reference compound]	50 µM		>50 µM		25 µM	25 µM	25 µM	>50 µM	3.1 µM	3.1 µM	50 µM	1.6 µM	3.2 µM		50 µM	400 µM	200 µM
C=CC1=C(C)C2=Cc3c(C=C)c(C)c4[n]3[Fe]([Cl])[n]3c(c(C)c(CCC(=O)N[C@@H](CCC(=O)N[C@@H](CCCNC(=N)N)C(=O)OC)C(=O)N[C@@H](CCCNC(=N)N)C(=O)OC)c3=CC3=NC(=C4)C(C)=C3CCC(=O)N[C@@H](CCC(=O)N[C@@H](CCCNC(=N)N)C(=O)OC)C(=O)N[C@@H](CCCNC(=N)N)C(=O)OC)=CC1=N2 [XVI, reference compound]									1.6 µM	>200** μM	6.3 µM	3.1 µM	12.5 µM		12.5 µM	>200** μM	>200** μM
C=CC1=C(C)C2=Cc3c(C=C)c(C)c4[n]3[Fe]([Cl])[n]3c(c(C)c(CCC(=O)NCC(=O)OC)c3=CC3=NC(=C4)C(C)=C3CCC(=O)NCC(=O)OC)=CC1=N2 [XVII, reference compound]	>50 µM		>50 µM		25 µM	25 µM	25 µM	>50 µM	12.5 µM	25 µM	50 µM	1.6 µM	6.5 µM		100 µM	>200** μM	50 µM
C=CC1=C(C)C2=Cc3c(C=C)c(C)c4[n]3[Fe]([Cl])[n]3c(c(C)c(CCC(=O)N[C@@H](CO)C(=O)OC)c3=CC3=NC(=C4)C(C)=C3CCC(=O)N[C@@H](CO)C(=O)OC)=CC1=N2 [XVIII, reference compound]									6.3 µM	9 µM	25 µM	6.3 µM	12.5 µM		12.5 µM	25 µM	200 µM
